#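 Interpolation was linear, between the two tested concentrations surrounding the appropriate level; five concentrations were tested over 48 hours in 96-well plates. TGI is the concentration that stops growth completely.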
# What was measured:
# Test in all cases: DTP human tumour cell line panel, 48 h
# KM12 colon = tested on: KM12 colon
# BT-549 breast = tested on: BT-549 breast
# HCC-2998 colon = tested on: HCC-2998 colon
# SN12C renal = tested on: SN12C renal
# CAKI-1 renal = tested on: CAKI-1 renal
# TK-10 renal = tested on: TK-10 renal
# K-562 leukemia = tested on: K-562 leukemia
# OVCAR-3 ovarian = tested on: OVCAR-3 ovarian
# MDA-N = tested on: MDA-N
# SF-268 CNS = tested on: SF-268 CNS
# MALME-3M melanoma = tested on: MALME-3M melanoma
# SK-OV-3 ovarian = tested on: SK-OV-3 ovarian
# NCI-H522 lung = tested on: NCI-H522 lung
# MOLT-4 leukemia = tested on: MOLT-4 leukemia
# SW-620 colon = tested on: SW-620 colon
# EKVX NSCLC = tested on: EKVX NSCLC
# U251 CNS = tested on: U251 CNS
# HOP-62 NSCLC = tested on: HOP-62 NSCLC
# COLO 205 colon = tested on: COLO 205 colon
# SF-295 CNS = tested on: SF-295 CNS
# LOX IMVI melanoma = tested on: LOX IMVI melanoma
# HCT-116 colon = tested on: HCT-116 colon
# SK-MEL-28 melanoma = tested on: SK-MEL-28 melanoma
# IGROV1 ovarian = tested on: IGROV1 ovarian
# SK-MEL-5 melanoma = tested on: SK-MEL-5 melanoma
# HT29 colon = tested on: HT29 colon
# SNB-19 CNS = tested on: SNB-19 CNS
# UACC-257 melanoma = tested on: UACC-257 melanoma
# HL-60(TB) leukemia = tested on: HL-60(TB) leukemia
# MDA-MB-231 breast = tested on: MDA-MB-231 breast
# OVCAR-4 ovarian = tested on: OVCAR-4 ovarian
# NCI-H23 lung = tested on: NCI-H23 lung
# UACC-62 melanoma = tested on: UACC-62 melanoma
# PC-3 prostate = tested on: PC-3 prostate
# UO-31 renal = tested on: UO-31 renal
# OVCAR-8 ovarian = tested on: OVCAR-8 ovarian
# CCRF-CEM leukemia = tested on: CCRF-CEM leukemia
# HCT-15 colon = tested on: HCT-15 colon
# A549 NSCLC = tested on: A549 NSCLC
# HS 578T breast = tested on: HS 578T breast
# NCI-H226 lung = tested on: NCI-H226 lung
# MCF7 breast = tested on: MCF7 breast
# M14 melanoma = tested on: M14 melanoma
# NCI/ADR-RES ovarian = tested on: NCI/ADR-RES ovarian
# OVCAR-5 ovarian = tested on: OVCAR-5 ovarian
# HOP-92 NSCLC = tested on: HOP-92 NSCLC
# RXF 393 renal = tested on: RXF 393 renal
# T-47D breast = tested on: T-47D breast
# MDA-MB-435 = tested on: MDA-MB-435
# ACHN renal = tested on: ACHN renal
# DU-145 prostate = tested on: DU-145 prostate
# SK-MEL-2 melanoma = tested on: SK-MEL-2 melanoma
# 786-0 renal = tested on: 786-0 renal
# NCI-H460 lung = tested on: NCI-H460 lung
# A498 renal = tested on: A498 renal
# SNB-75 CNS = tested on: SNB-75 CNS
# SR leukemia = tested on: SR leukemia
# RPMI-8226 leukemia = tested on: RPMI-8226 leukemia
# SF-539 CNS = tested on: SF-539 CNS
smiles,measurement,setting,value
CN(C)CCCn1c(Cn2nc3ccccc3n2)nc2cc(C(F)(F)F)ccc21,TGI,KM12 colon,54.1 µM
same,TGI,BT-549 breast,> 100 µM
same,TGI,HCC-2998 colon,21.2 µM
same,TGI,SN12C renal,> 100 µM
same,TGI,CAKI-1 renal,> 100 µM
same,TGI,TK-10 renal,80.6 µM
same,TGI,K-562 leukemia,36.6 µM
same,TGI,OVCAR-3 ovarian,> 100 µM
same,TGI,MDA-N,35.6 µM
same,TGI,SF-268 CNS,> 100 µM
same,TGI,MALME-3M melanoma,24.4 µM
same,TGI,SK-OV-3 ovarian,60.9 µM
same,TGI,NCI-H522 lung,31.2 µM
same,TGI,MOLT-4 leukemia,45.6 µM
same,TGI,SW-620 colon,> 100 µM
same,TGI,EKVX NSCLC,> 100 µM
same,TGI,U251 CNS,> 100 µM
same,TGI,HOP-62 NSCLC,> 100 µM
same,TGI,COLO 205 colon,28.6 µM
same,TGI,SF-295 CNS,> 100 µM
same,TGI,LOX IMVI melanoma,34.6 µM
same,TGI,HCT-116 colon,> 100 µM
same,TGI,SK-MEL-28 melanoma,34.6 µM
same,TGI,IGROV1 ovarian,> 100 µM
same,TGI,SK-MEL-5 melanoma,30.2 µM
same,TGI,HT29 colon,46.2 µM
same,TGI,SNB-19 CNS,> 100 µM
same,TGI,UACC-257 melanoma,33.5 µM
same,TGI,HL-60(TB) leukemia,16.5 µM
same,TGI,MDA-MB-231 breast,> 100 µM
same,TGI,OVCAR-4 ovarian,> 100 µM
same,TGI,NCI-H23 lung,> 100 µM
same,TGI,UACC-62 melanoma,40.8 µM
same,TGI,PC-3 prostate,> 100 µM
same,TGI,UO-31 renal,73.2 µM
same,TGI,OVCAR-8 ovarian,> 100 µM
same,TGI,CCRF-CEM leukemia,39.5 µM
same,TGI,HCT-15 colon,> 100 µM
same,TGI,A549 NSCLC,> 100 µM
same,TGI,HS 578T breast,> 100 µM
same,TGI,NCI-H226 lung,> 100 µM
same,TGI,MCF7 breast,64.7 µM
same,TGI,M14 melanoma,29 µM
same,TGI,NCI/ADR-RES ovarian,> 100 µM
same,TGI,OVCAR-5 ovarian,> 100 µM
same,TGI,HOP-92 NSCLC,89.9 µM
same,TGI,RXF 393 renal,> 100 µM
same,TGI,T-47D breast,35.1 µM
same,TGI,MDA-MB-435,33 µM
same,TGI,ACHN renal,> 100 µM
same,TGI,DU-145 prostate,> 100 µM
same,TGI,SK-MEL-2 melanoma,43.5 µM
same,TGI,786-0 renal,35.3 µM
same,TGI,NCI-H460 lung,89 µM
same,TGI,A498 renal,41.7 µM
CCCN(CCC)C(=O)c1c(N2CCN(C)CC2)c2cccnc2n2c(C)cnc12,TGI,KM12 colon,> 100 µM
same,TGI,SN12C renal,> 100 µM
same,TGI,CAKI-1 renal,> 100 µM
same,TGI,TK-10 renal,> 100 µM
same,TGI,K-562 leukemia,> 100 µM
same,TGI,OVCAR-3 ovarian,> 100 µM
same,TGI,MDA-N,> 100 µM
same,TGI,SF-268 CNS,> 100 µM
same,TGI,MALME-3M melanoma,> 100 µM
same,TGI,NCI-H522 lung,> 100 µM
same,TGI,MOLT-4 leukemia,> 100 µM
same,TGI,SW-620 colon,45.5 µM
same,TGI,EKVX NSCLC,> 100 µM
same,TGI,U251 CNS,> 100 µM
same,TGI,HOP-62 NSCLC,> 100 µM
same,TGI,COLO 205 colon,> 100 µM
same,TGI,SF-295 CNS,> 100 µM
same,TGI,LOX IMVI melanoma,> 100 µM
same,TGI,SNB-75 CNS,> 100 µM
same,TGI,HCT-116 colon,> 100 µM
same,TGI,SK-MEL-28 melanoma,> 100 µM
same,TGI,IGROV1 ovarian,> 100 µM
same,TGI,SK-MEL-5 melanoma,> 100 µM
same,TGI,HT29 colon,> 100 µM
same,TGI,SNB-19 CNS,68.1 µM
same,TGI,UACC-257 melanoma,> 100 µM
same,TGI,SR leukemia,> 100 µM
same,TGI,HL-60(TB) leukemia,> 100 µM
same,TGI,MDA-MB-231 breast,> 100 µM
same,TGI,OVCAR-4 ovarian,> 100 µM
same,TGI,NCI-H23 lung,> 100 µM
same,TGI,UACC-62 melanoma,> 100 µM
same,TGI,PC-3 prostate,> 100 µM
same,TGI,UO-31 renal,> 100 µM
same,TGI,OVCAR-8 ovarian,> 100 µM
same,TGI,CCRF-CEM leukemia,> 100 µM
same,TGI,HCT-15 colon,> 100 µM
same,TGI,A549 NSCLC,> 100 µM
same,TGI,HS 578T breast,> 100 µM
same,TGI,NCI-H226 lung,> 100 µM
same,TGI,MCF7 breast,> 100 µM
same,TGI,M14 melanoma,> 100 µM
same,TGI,NCI/ADR-RES ovarian,> 100 µM
same,TGI,RPMI-8226 leukemia,> 100 µM
same,TGI,OVCAR-5 ovarian,> 100 µM
same,TGI,HOP-92 NSCLC,> 100 µM
same,TGI,RXF 393 renal,> 100 µM
same,TGI,T-47D breast,> 100 µM
same,TGI,MDA-MB-435,> 100 µM
same,TGI,ACHN renal,> 100 µM
same,TGI,SF-539 CNS,> 100 µM
same,TGI,DU-145 prostate,> 100 µM
same,TGI,SK-MEL-2 melanoma,> 100 µM
same,TGI,786-0 renal,> 100 µM
same,TGI,NCI-H460 lung,> 100 µM
same,TGI,A498 renal,> 100 µM

# Source: PubChem BioAssay (NCI)
